Experimental data: US7772271B2 (priority 2004, dated 2010)

SMILES | melting point
CCOc1ccc2c(C#N)c(-c3ccc(S(=O)(=O)N4CCC[C@@H]4CO)cc3)n(C3CCC3)c2c1 [Compound 2690] | 170 to 172 °C
C[C@@H](OC(=O)Nc1ccc(-c2c(C#N)c3ccc(OCCCS(C)(=O)=O)cc3n2C2CCC2)cc1)C1CC1 [Compound 2694] | 155 to 160 °C
C[C@@H](OC(=O)Nc1ccc(-c2c(C#N)c3ccc(OC4CCOCC4)cc3n2C2CCC2)cc1)C1CC1 [Compound 2696] | 126 to 128 °C
CC(C)OC(=O)Nc1ccc(-c2c(C#N)c3ccc(OCCSc4ccccn4)cc3n2C2CCC2)cc1 [Compound 2697] | 145 to 146 °C
CC(C)OC(=O)Nc1ccc(-c2c(C#N)c3ccc(OCCSc4ncccn4)cc3n2C2CCC2)cc1 [Compound 2698] | 69 to 72 °C
Cc1nnc(SCCOc2ccc3c(C#N)c(-c4ccc(NC(=O)OC(C)C)cc4)n(C4CCC4)c3c2)s1 [Compound 2699] | 150 to 151 °C
CSCCOc1ccc2c(C#N)c(-c3ccc(NC(=O)OC(C)C)cc3)n(C3CCC3)c2c1 [Compound 2700] | 132 to 133 °C
COCCOc1ccc2c(C#N)c(-c3ccc(NC(=O)O[C@H](C)C4CC4)cc3)n(C3CCC3)c2c1 [Compound 2702] | 116 to 117 °C
C[C@@H](OC(=O)Nc1ccc(-c2c(C#N)c3ccc(O[C@H]4CCOC4)cc3n2C2CCC2)cc1)C1CC1 [Compound 2703] | 166 to 168 °C
CCOc1ccc2c(C#N)c(-c3ccc(NC(=O)O[C@H](C)c4ccncc4)cc3)n(C3CCC3)c2c1 [Compound 2705] | 180 to 183 °C
CCOc1ccc2c(C#N)c(-c3ccc(NC(=O)O[C@@H](C)c4ccncc4)cc3)n(C3CCC3)c2c1 [Compound 2706] | 180 to 183 °C
CC(OC(=O)Nc1ccc(-c2c(C#N)c3ccc(Oc4ncccn4)cc3n2C2CCC2)cc1)C(F)(F)F (centres unmarked) [Compound 2707] | 211 to 213 °C
CC(OC(=O)Nc1ccc(-c2c(C#N)c3ccc(Oc4ncccn4)cc3n2C2CCC2)cc1)c1ccc(F)cc1 (centres unmarked) [Compound 2708] | 200 to 202 °C
N#Cc1c(-c2ccc(NC(=O)OC(c3ccccc3)C(F)(F)F)cc2)n(C2CCC2)c2cc(Oc3ncccn3)ccc12 (centres unmarked) [Compound 2709] | 246 to 248 °C
CC(NC(=O)Nc1ccc(-c2c(C#N)c3ccc(Oc4ncccn4)cc3n2C2CCC2)cc1)c1ccc(F)cc1 (centres unmarked) [Compound 2710] | 240 to 242 °C
COCCOc1ccc2c(C#N)c(-c3ccc(NC(=O)O[C@H](C)C4CC4)cc3)n(C3CC3)c2c1 [Compound 2711] | 157 to 159 °C
C[C@@H](OC(=O)Nc1ccc(-c2c(C#N)c3ccc(OC4CCOCC4)cc3n2C2CC2)cc1)C1CC1 [Compound 2712] | 149 to 151 °C
CCSc1ccc2c(C#N)c(-c3ccc(NC(=O)OC(C)C)cc3)n(C3CCC3)c2c1 [Compound 2713] | 150 to 152 °C
CC[S+]([O-])c1ccc2c(C#N)c(-c3ccc(NC(=O)OC(C)C)cc3)n(C3CCC3)c2c1 (centres unmarked) [Compound 2714] | 165 to 168 °C
Cc1nccc(Oc2ccc3c(C#N)c(-c4ccc(NC(=O)O[C@H](C)C5CC5)cc4)n(C4CC4)c3c2)n1 [Compound 2715] | 123 to 125 °C
C[C@@H](OC(=O)Nc1ccc(-c2c(C#N)c3ccc(Oc4ncccn4)cc3n2C2CCC2)cc1)c1ccc(F)cc1 [Compound 2716] | 173 to 175 °C
COCCOc1ccc2c(C#N)c(-c3ccc(NC(=O)OC(C)(C)C(F)(F)F)cc3)n(C(C)C)c2c1 [Compound 2718] | 188 to 191 °C

SMILES | melting point
COCCOc1ccc2c(C#N)c(-c3ccc(NC(=O)O[C@H](C)C4CC4)cc3)n(C(C)C)c2c1 [Compound 2719] | 88 to 100 °C
C[C@@H](OC(=O)Nc1ccc(-c2c(C#N)c3cc(OCCCn4ccnc4)ccc3n2C2CCC2)cc1)C1CC1 [Compound 2723] | 182 to 184 °C
N#Cc1c(-c2ccc(NC(=O)OCc3ccccc3)cc2)n(C2CCC2)c2ccc(OCCCn3ccnc3)cc12 [Compound 2726] | 229 to 231 °C
CC(C)NC(=O)Nc1ccc(-c2c(C#N)c3cc(OCCCn4ccnc4)ccc3n2C2CCC2)cc1 [Compound 2727] | 232 to 234 °C
CC(OC(=O)Nc1ccc(-c2c(C#N)c3cc(OCCCn4cncn4)ccc3n2C2CCC2)cc1)C1CCC1 (centres unmarked) [Compound 2730] | 149 to 150 °C
N#Cc1c(-c2ccc(NC(=O)OCc3ccccc3)cc2)n(C2CCC2)c2ccc(OCCCn3cncn3)cc12 [Compound 2732] | 215 to 217 °C
C[C@H](OC(=O)Nc1ccc(-c2c(C#N)c3cc(OCCCn4cncn4)ccc3n2C2CCC2)cc1)c1ccccc1 [Compound 2733] | 206 to 208 °C
C[C@@H](OC(=O)Nc1ccc(-c2c(C#N)c3cc(OCCCn4cncn4)ccc3n2C2CCC2)cc1)c1ccccc1 [Compound 2734] | 206 to 208 °C
COc1ccnc(Oc2ccc3c(C#N)c(-c4ccc(NC(=O)O[C@H](C)C5CC5)cc4)n(C4CCC4)c3c2)n1 [Compound 2736] | 161 to 164 °C
COc1ccnc(Oc2ccc3c(C#N)c(-c4ccc(NC(=O)OC(C)C)cc4)n(C4CCC4)c3c2)n1 [Compound 2739] | 179 to 183 °C
CC(C)n1c(-c2ccc(NC(=O)O[C@H](C)C3CC3)cc2)c(C#N)c2ccc(OC3CCOCC3)cc21 [Compound 2741] | 208 to 210 °C
CC(C)n1c(-c2ccc(NC(=O)O[C@H](C)C3CC3)cc2)c(C#N)c2ccc(O[C@H]3CCOC3)cc21 [Compound 2742] | 189 to 192 °C
CC(C)n1c(-c2ccc(NC(=O)O[C@H](C)C3CC3)cc2)c(C#N)c2ccc(O[C@@H]3CCOC3)cc21 [Compound 2743] | 151 to 153 °C
CCOP(=O)(Nc1ccc(-c2c(C#N)c3ccc(OC4CCOCC4)cc3n2C2CCC2)cc1)OCC [Compound 2744] | 195 to 197 °C
CCS(=O)(=O)Nc1ccc(-c2c(C#N)c3ccc(OC4CCOCC4)cc3n2C2CCC2)cc1 [Compound 2745] | 207 to 209 °C
CCCS(=O)(=O)Nc1ccc(-c2c(C#N)c3ccc(OC4CCOCC4)cc3n2C2CCC2)cc1 [Compound 2746] | 185 to 187 °C
N#Cc1c(-c2ccc(NS(=O)(=O)C3CC3)cc2)n(C2CCC2)c2cc(OC3CCOCC3)ccc12 [Compound 2747] | 202 to 204 °C
CC(C)S(=O)(=O)Nc1ccc(-c2c(C#N)c3ccc(OC4CCOCC4)cc3n2C2CCC2)cc1 [Compound 2748] | 211 to 213 °C
N#Cc1c(-c2ccc(N3CCCS3(=O)=O)cc2)n(C2CCC2)c2cc(OC3CCOCC3)ccc12 [Compound 2749] | 224 to 226 °C
COc1ccnc(Oc2ccc3c(C#N)c(-c4ccc(NC(=O)NC(C)C)cc4)n(C4CCC4)c3c2)n1 [Compound 2750] | 221 to 225 °C
CCN(CC)C(=O)c1ccc(-c2c(C#N)c3ccc(OCCOC)cc3n2C2CCC2)cc1 [Compound 2752] | 136 to 138 °C
COCCOc1ccc2c(C#N)c(-c3ccc(C(=O)NC(C)C)cc3)n(C3CCC3)c2c1 [Compound 2753] | 202 to 204 °C

SMILES | melting point
COCCOc1ccc2c(C#N)c(-c3ccc(C(=O)N4CCOCC4)cc3)n(C3CCC3)c2c1 [Compound 2754] | 148 to 150 °C
COCCOc1ccc2c(C#N)c(-c3ccc(C(=O)N4CCC4)cc3)n(C3CCC3)c2c1 [Compound 2755] | 166 to 168 °C
COCCOc1ccc2c(C#N)c(-c3ccc(C(=O)N4CCCC4)cc3)n(C3CCC3)c2c1 [Compound 2756] | 162 to 164 °C
COCCOc1ccc2c(C#N)c(-c3ccc(C(=O)N4CCCCC4)cc3)n(C3CCC3)c2c1 [Compound 2757] | 155 to 158 °C
COCCOc1ccc2c(C#N)c(-c3ccc(C(=O)NC4CCCC4)cc3)n(C3CCC3)c2c1 [Compound 2758] | 194 to 196 °C
COCCOc1ccc2c(C#N)c(-c3ccc(C(=O)NC4CCC4)cc3)n(C3CCC3)c2c1 [Compound 2759] | 199 to 200 °C
COCCOc1ccc2c(C#N)c(-c3ccc(C(=O)NC4CC4)cc3)n(C3CCC3)c2c1 [Compound 2760] | 228 to 230 °C
Cc1nccc(Oc2ccc3c(C#N)c(-c4ccc(NC(=O)NC(C)C)cc4)n(C4CCC4)c3c2)n1 [Compound 2761] | 240 to 245 °C
CC(C)NC(=O)Nc1ccc(-c2c(C#N)c3ccc(Oc4ccc(Cl)nn4)cc3n2C2CCC2)cc1 [Compound 2762] | 264 to 269 °C
CC(C)(C)OC(=O)Nc1ccc(-c2c(C#N)c3ccc(N4CCOCC4)cc3n2C2CCC2)cc1 [Compound 2764] | 218 to 220 °C
N#Cc1c(-c2ccc(NS(=O)(=O)C3CC3)cc2)n(CC2CC2)c2cc(OC3CCOCC3)ccc12 [Compound 2768] | 99 to 102 °C
N#Cc1c(-c2ccc(NS(=O)(=O)C3CC3)cc2)n(C2CCC2)c2ccc(OC3COCOC3)cc12 [Compound 2775] | 199 to 203 °C
CCCS(=O)(=O)Nc1ccc(-c2c(C#N)c3cc(OC4COCOC4)ccc3n2C2CCC2)cc1 [Compound 2776] | 183 to 184 °C
CC(C)(C)OC(=O)Nc1ccc(-c2c(C#N)c3ccc(N4CCSCC4)cc3n2C2CCC2)cc1 [Compound 2777] | 191 °C (dec.)
C[C@@H](OC(=O)Nc1ccc(-c2c(C#N)c3ccc(C(=O)O)cc3n2C2CCC2)cc1)C1CC1 [Compound 2778] | 222 to 225 °C
CCOC(CCOc1ccc2c(C#N)c(-c3ccc(NC(=O)OC(C)C)cc3)n(C3CCC3)c2c1)OCC [Compound 2779] | 146 to 150 °C
CCNC(=O)Oc1ccc(-c2c(C#N)c3ccc(OC4CCOCC4)cc3n2CC2CC2)cc1 [Compound 2780] | 155 to 156 °C
CCCNC(=O)Oc1ccc(-c2c(C#N)c3ccc(OC4CCOCC4)cc3n2CC2CC2)cc1 [Compound 2781] | 147 to 148 °C
CC(C)NC(=O)Oc1ccc(-c2c(C#N)c3ccc(OC4CCOCC4)cc3n2CC2CC2)cc1 [Compound 2782] | 161 to 163 °C
CCCCNC(=O)Oc1ccc(-c2c(C#N)c3ccc(OC4CCOCC4)cc3n2CC2CC2)cc1 [Compound 2783] | 146 to 147 °C
N#Cc1c(-c2ccc(OC(=O)NC3CCCC3)cc2)n(CC2CC2)c2cc(OC3CCOCC3)ccc12 [Compound 2784] | 169 to 171 °C
